Experimental data: the supplement of paper PMC10307832

Tests used:
Test in all cases: relative viability (nuclei count vs DMSO), 5 days (fraction); higher = more cells survive
Vorinostat + Tozasertib = compound: O=C(CCCCCCC(=O)Nc1ccccc1)NO [Vorinostat] + Cc1cc(Nc2cc(N3CCN(C)CC3)nc(Sc3ccc(NC(=O)C4CC4)cc3)n2)n[nH]1 [Tozasertib] (partner 0.1 µM)
Procedure, shortened: (§1)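 Five library-drug doses in √10 steps were combined with a fixed anchor-drug dose, or a single drug was given alone, by pin tool to lung cancer cell lines in 1536-well plates the day after seeding. Nuclei were stained and counted after 5 days. Relative viability is the nuclei count in treated wells over that in vehicle wells, taken as the median of duplicate plates.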

Vorinostat + Crizotinib = compound: O=C(CCCCCCC(=O)Nc1ccccc1)NO [Vorinostat] + C[C@@H](Oc1cc(-c2cnn(C3CCNCC3)c2)cnc1N)c1c(Cl)ccc(F)c1Cl [Crizotinib] (partner 1 µM)
Procedure, shortened: as §1

Vorinostat + Palbociclib = compound: O=C(CCCCCCC(=O)Nc1ccccc1)NO [Vorinostat] + CC(=O)c1c(C)c2cnc(Nc3ccc(N4CCNCC4)cn3)nc2n(C2CCCC2)c1=O [Palbociclib] (partner 0.5 µM)
Procedure, shortened: as §1

Vorinostat + AZD7762 = compound: O=C(CCCCCCC(=O)Nc1ccccc1)NO [Vorinostat] + NC(=O)Nc1cc(-c2cccc(F)c2)sc1C(=O)N[C@H]1CCCNC1 [AZD7762] (partner 0.2 µM)
Procedure, shortened: as §1

Vorinostat + Pemetrexed = compound: O=C(CCCCCCC(=O)Nc1ccccc1)NO [Vorinostat] + Nc1nc2[nH]cc(CCc3ccc(C(=O)N[C@@H](CCC(=O)O)C(=O)O)cc3)c2c(=O)[nH]1 [Pemetrexed] (partner 0.2 µM)
Procedure, shortened: as §1

Row | Cell Line | relative viability (Vorinostat + Tozasertib; first compound 0.253 µM) | relative viability (Vorinostat + Tozasertib; first compound 0.8 µM) | relative viability (Vorinostat + Tozasertib; first compound 2.53 µM) | relative viability (Vorinostat + Tozasertib; first compound 8 µM) | relative viability (Vorinostat + Crizotinib; first compound 0.253 µM) | relative viability (Vorinostat + Crizotinib; first compound 0.8 µM) | relative viability (Vorinostat + Crizotinib; first compound 2.53 µM) | relative viability (Vorinostat + Crizotinib; first compound 8 µM) | relative viability (Vorinostat + Palbociclib; first compound 0.253 µM) | relative viability (Vorinostat + Palbociclib; first compound 0.8 µM) | relative viability (Vorinostat + Palbociclib; first compound 2.53 µM) | relative viability (Vorinostat + Palbociclib; first compound 8 µM) | relative viability (Vorinostat + AZD7762; first compound 0.253 µM) | relative viability (Vorinostat + AZD7762; first compound 0.8 µM) | relative viability (Vorinostat + AZD7762; first compound 2.53 µM) | relative viability (Vorinostat + AZD7762; first compound 8 µM) | relative viability (Vorinostat + Pemetrexed; first compound 0.253 µM) | relative viability (Vorinostat + Pemetrexed; first compound 0.8 µM) | relative viability (Vorinostat + Pemetrexed; first compound 2.53 µM) | relative viability (Vorinostat + Pemetrexed; first compound 8 µM)
1 | HCC-366 | 0.0967 | 0.0579 | 0.033 | 0.031 | 0.217 | 0.1 | 0.0143 | 0.0124 | 0.345 | 0.182 | 0.0412 | 0.0283 | 0.459 | 0.195 | 0.0622 | 0.0231 | 0.169 | 0.174 | 0.0867 | 0.0396
2 | HCC-15 | 0.294 | 0.219 | 0.101 | 0.0559 | 0.919 | 0.879 | 0.496 | 0.0884 | 0.748 | 0.688 | 0.281 | 0.101 | 1.39 | 1.11 | 1.06 | 0.363 | 0.219 | 0.216 | 0.172 | 0.099
3 | CAL-12T | 0.446 | 0.246 | 0.162 | 0.109 | 0.901 | 0.443 | 0.207 | 0.0708 | 0.61 | 0.386 | 0.182 | 0.0984 | 0.639 | 0.603 | 0.337 | 0.162 | 1.36 | 1.31 | 1.08 | 0.126
4 | NCI-H1975 | 0.762 | 0.484 | 0.118 | 0.077 | 1.04 | 0.679 | 0.174 | 0.134 | 0.569 | 0.461 | 0.164 | 0.104 | 0.791 | 0.641 | 0.272 | 0.197 | 0.323 | 0.243 | 0.183 | 0.133
5 | LC-2-ad | 0.418 | 0.303 | 0.217 | 0.147 | 0.368 | 0.361 | 0.268 | 0.178 | 0.566 | 0.455 | 0.331 | 0.186 | 0.867 | 0.632 | 0.226 | 0.159 | 0.273 | 0.268 | 0.263 | 0.19
6 | HARA | 0.139 | 0.104 | 0.0618 | 0.0739 | 1.15 | 0.932 | 0.136 | 0.0954 | 0.32 | 0.295 | 0.184 | 0.133 | 0.2 | 0.245 | 0.146 | 0.125 | 0.239 | 0.217 | 0.205 | 0.125
7 | HCC-78 | 0.384 | 0.268 | 0.167 | 0.2 | 0.319 | 0.229 | 0.117 | 0.137 | 0.467 | 0.518 | 0.438 | 0.344 | 0.451 | 0.464 | 0.223 | 0.199 | 0.888 | 0.852 | 0.875 | 0.868
8 | HCC-827 | 0.5 | 0.454 | 0.236 | 0.135 | 0.97 | 0.964 | 0.581 | 0.174 | 0.576 | 0.506 | 0.333 | 0.135 | 0.181 | 0.321 | 0.215 | 0.178 | 0.269 | 0.278 | 0.212 | 0.153
